The values below come from patent US11690824B2, “Antibacterial compounds” (THE GENERAL HOSPITAL CORPORATION, priority 2018, dated 2023).

Usually MIC stands for the lowest concentration that inhibits growth of the organism.

Values after ≈ are worked out from the molar mass of the structure shown. Read-outs that look alike come from different tables or passages of the source.

For one data set, the system named is human erythrocytes. Briefly: Human blood hemolysis. The data set is classed as cell-based. The settings on record: 32 μg/ml. Here is the method:
Human blood hemolysis. Hemolytic activity was evaluated as described in a previous study. Briefly, 100 μL of 4% human erythrocytes (Rockland Immunochemicals, Limerick, Pa., USA) was added to 100 μL of 2-fold serial dilutions of compounds in PBS, 0.2% DMSO (negative control), or 2% Triton-X 100 (positive control) in a 96-well plate. The 96-well plate was incubated at 37° C. for 1 h and then centrifuged at 500× g for 5 min. 50 μL of the supernatant was transferred to a fresh 96-well plate, and absorbance of supernatants was measured at 540 nm. Percent hemolysis was calculated using the following equation: (A540 nm of compound treated sample−A540 nm of 0.1% DMSO treated sample)/(A540 nm of 1% Triton X-100 treated sample−A540 nm of 0.1% DMSO treated sample)×100. HC50 (concentration of a compound causing 50% hemolysis) was determined using SigmaPlot 10.0 (Systat Software Inc., San Jose, Calif., USA).

Another data set concerns S. aureus (MRSA) MW2. The data set can be described thus: Minimal inhibitory concentration (MIC) assay, micro-dilution. As to conditions: for MIC: Example 5, MRSA MW2. The data set is classed as cell-based. An excerpt: Bacterial strains, growth conditions, and persister isolation. Methicillin-resistant S. aureus strains, MW2 BAA-1707, ATCC 33591, and JE2, methicillin-susceptible S. aureus strains, NCTC 8325, Newman, and ATCC 29213, vancomycin-resistant S. aureus strain, VRS1, Enterococcus faecium E007, vancomycin-resistant E. faecium strains, C68,^7 WB312, and WC196, Klebsiella pneumoniae WGLW2 (BEI Resources, Manassas, Va., USA), Acinetobacter baumannii ATCC 17978, Pseudomonas aeruginosa PA14, and Enterobacter aerogenes ATCC 13048 were used to test antimicrobial activity (Table 1). S. aureus strains were grown in tryptic soy broth (TSB) (BD, Franklin Lakes, N.J., USA), and E. faecium was grown in brain-heart infusion (BHI) broth (BD, Franklin Lakes, N.J., USA) at 37° C. K. pneumoniae, A. baumannii, P. aeruginosa, and E. aerogenes were grown in Luria Bertani (LB) broth (BD, Franklin Lakes, N.J., USA) at 37° C.
Minimal inhibitory concentration (MIC) assay. The MICS of antibiotics were determined by the standard micro-dilution method recommended by the Clinical and Laboratory Standards Institute. MIC assays were conducted in biological triplicate.

For another data set, the system named is HepG2. The data set can be described thus: Cytotoxicity (WST-1). Format: cell-based. The settings on record: 32 μg/ml. The procedure:
(§1) Cytotoxicity. […] HepG2 and HKC-8 cells were grown in Dulbecco's modified Eagle F-12 media mixed 1:1 with Ham's F-12 (DMEM/F-12, Life Technologies, Carlsbad, Calif., USA) supplemented with 10% FBS and 4 mM L-glutamine at 37° C. in 5% CO2. For cytotoxicity assays, HepG2 or HKC-8 was cultured in 96-well plates in 100 μL/well of the proper media to reach 70-80% confluence. The cells were then treated with a range of concentrations of nTZDpa or its analogs for 72 h. 10 μL of WST-1 (Roche, Mannheim, Germany) was added per well for the last 4 h of the 72 h period. WST-1 reduction was measured at absorbance 450 nm. The percent […] relative to that of the no-treatment control was calculated. The assay was carried out in biological triplicate.
A general note: Formazan colour is commonly taken as a measure of viable cells.

Another data set concerns HKC-8. Briefly: Cytotoxicity (WST-1). Format: cell-based. The settings on record: 32 μg/ml. The procedure:
as §1

The next data set deals with MRSA MW2. The data set can be described thus: SYTOX Green membrane permeability assay. Format: cell-based, S. aureus. The procedure:
SYTOX Green membrane permeability assay. […] The washed cells were adjusted to OD600=0.4 with PBS. SYTOX Green (Molecular Probes, Waltham, Mass., USA) was added to 10 mL of the diluted bacterial suspension to a final concentration of 5 μM and incubated for 30 min at room temperature in the dark. 50 μL of the bacteria/SYTOX Green suspension was mixed with 50 μl of PBS containing twice the desired concentrations of compounds in black, clear-bottom, 96-well plates (Corning no. 3904). Fluorescence was measured at room temperature using a spectrophotometer (SpectraMax M2, Molecular Devices), with excitation and emission wavelengths of 485 nm and 525 nm, respectively. All experiments were conducted in biological triplicate.

Regarding `O=C(O)c1c(Sc2ccccc2)c2ccc(Cl)cc2n1Cc1ccc(Cl)cc1` [Analog 2a], the “hemolysis of human erythrocytes” value in the data set on human erythrocytes is on record as “did not significantly cause hemolysis”. The MIC result against S. aureus (MRSA) MW2 is given as “same MIC”. Further, the “cell death of HepG2” value in the data set on HepG2 is listed as “did not display a significant level of cytotoxicity”. The “cell death of HKC-8” value in the data set on HKC-8 was “did not display a significant level of cytotoxicity”.
Consider `COc1c(C(=O)O)n(Cc2ccc(Cl)cc2)c2ccc(Cl)cc12` [Compound S14, 5-chloro-1-(4-chlorobenzyl)-3-methoxy-1H-indole-2-carboxylic acid], for which the “concentration inducing SYTOX Green fluorescence” value in the data set on MRSA MW2 worked out at 64 µg/mL. Further, in the data set on S. aureus (MRSA) MW2 (Staphylococcus aureus, read-out: MIC), the MIC stood at 32 µg/mL (≈ 91.4 µM). Further, the “antibiotic activity / potency relative to nTZDpa” value in the data set with S. aureus (MRSA) MW2 (growing S. aureus cells) is “reduction of antibiotic activity”.
